Values joined by “and” are separate entries in the source; they are usually repeats but may differ in a detail not shown here. Identical values can stand only once. Like-named read-outs stand apart in the source and are kept apart here.
Key:
human recombinant GCL = human recombinant GCL (Homo sapiens (Human), UniProt P48506); test: GCL enzyme profiling assay (ADP-Glo luminescence); format: biochemical; conditions: human recombinant GCL 5 nM, 1 h preincubation with ATP
Protocol: The GCL enzyme assay was run in 50 mM HEPES, pH 7.5, containing 150 mM NaCl, 30 mM MgCl2, 0.5 mM EDTA, 1 mM DTT, 0.1 mg/mL BSA, and 0.02% or in the present case 0.2% F-127 in a total assay volume of 10 μL or 10 mL. Compound in pure DMSO was stamped in assay plates (Greiner black 384-well) or appropriate containers using a D300e digital dispenser (TECAN) and the final DMSO concentration was normalized to 1%. A 5 mL, or in the present case, 5 μL mixture of human recombinant GCL (final concentration: 5 nM) and ATP (final concentration: 0.6 mM) was added and the solution was incubated at room temperature (22° C.) for 1 h. The GCL enzyme reaction was initiated by addition of a 5 μL mixture of mono g-glutamate or in the present example, monosodium glutamate (final concentration: 1 mM) and a-aminobutyrate or α-aminobutyrate (final concentration: 1.2 mM). The reaction was stopped after 1 h or in the present case, 2 h by addition of 5 mL, or in the present case, 5 μL ADP GLO Reagent (Promega). The resulting solution was incubated for 2 h at room temperature. This was then followed by addition of 5 mL, or in the present case, 5 μL ADP GLO Detection. After incubation at room temperature for 30 min, the plates were read on a plate reader (PheraStar) using a luminescence protocol to quantify the GCL enzyme activity from each reaction solution. The data was analyzed using a four-parameter logistic equation to calculate IC50.

RKN cells = test: RKN cell profiling assay (cell viability, CellTiter-Glo); format: cell-based; conditions: 96 h, 96 h exposure, read-out: Cell Killing EC50
How it was run: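 Cells seeded at 1,000/well in F-12 with 10% FBS, left to adhere 24 h, then compound-treated for 96 h at 0.5% final DMSO. Viability by CellTiter-Glo luminescence; EC50 from four-parameter logistic fit. Ferroptosis rescue runs included 1.5 μM ferrostatin-1 added at seeding.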

Chain of human recombinant GCL (P48506 whole entry): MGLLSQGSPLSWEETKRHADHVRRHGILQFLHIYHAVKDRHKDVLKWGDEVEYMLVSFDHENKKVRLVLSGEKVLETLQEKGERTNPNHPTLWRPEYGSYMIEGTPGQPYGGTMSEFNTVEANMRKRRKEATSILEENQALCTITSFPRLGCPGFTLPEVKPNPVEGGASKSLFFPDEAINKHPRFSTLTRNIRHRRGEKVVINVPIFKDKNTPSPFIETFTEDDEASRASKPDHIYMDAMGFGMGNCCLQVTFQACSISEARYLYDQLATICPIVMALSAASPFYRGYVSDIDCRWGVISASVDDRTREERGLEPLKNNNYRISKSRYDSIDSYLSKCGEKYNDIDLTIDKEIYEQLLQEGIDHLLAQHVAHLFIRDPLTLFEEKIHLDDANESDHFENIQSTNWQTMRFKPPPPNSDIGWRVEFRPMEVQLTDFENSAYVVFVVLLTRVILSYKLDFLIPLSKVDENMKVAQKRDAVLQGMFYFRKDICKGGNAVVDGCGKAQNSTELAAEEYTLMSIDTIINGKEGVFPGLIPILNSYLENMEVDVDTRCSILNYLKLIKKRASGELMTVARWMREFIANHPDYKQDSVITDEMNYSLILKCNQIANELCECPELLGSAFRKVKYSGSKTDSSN

SMILES | IC50 (human recombinant GCL; read-out: GCL IC50) | EC50 (RKN cells) | IC50 (human recombinant GCL; read-out: GCL IC50 (mM), individual values in parentheses)
CC(C)(CCS(=N)(=O)CC[C@H](N)C(=O)O)c1ccccc1Cl (some centres unmarked) [Compound 66] | 0.02 to 2 mM | ≥ 1 mM | –
COC(=O)[C@@H](N)CCS(=N)(=O)CCc1cnccn1 (stereo partly drawn) [Compound 67, (2S)-methyl 2-amino-4-(2-(pyrazin-2-yl)ethylsulfonimidoyl)butanoate] | > 2 mM | ≥ 1 mM | –
COC(=O)[C@@H](N)CCS(=N)(=O)CCc1ccccc1 (stereo partly drawn) [Compound 68, (2S)-methyl 2-amino-4-(2-phenylethylsulfonimidoyl)butanoate] | 0.02 to 2 mM | ≥ 1 mM | –
COC(=O)[C@@H](N)CCS(=N)(=O)CCc1nnn[nH]1 (stereo partly drawn) [Compound 69, (2S)-methyl 4-(2-(1H-tetrazol-5-yl)ethylsulfonimidoyl)-2-aminobutanoate] | > 2 mM | ≥ 1 mM | –
COC(=O)[C@@H](N)CCS(=N)(=O)CCCc1ccccc1 (stereo partly drawn) [Compound 70, (2S)-methyl 2-amino-4-(3-phenylpropylsulfonimidoyl)butanoate] | 0.02 to 2 mM | ≥ 1 mM | –
COC(=O)[C@@H](N)CCS(=N)(=O)CCCC1CC1 (stereo partly drawn) [Compound 71, (2S)-methyl 2-amino-4-(3-cyclopropylpropylsulfonimidoyl)butanoate] | 0.02 to 2 mM | ≥ 1 mM | –
CCCCOC(=O)[C@@H](N)CCS(=N)(=O)CCC(C)(C)C (stereo partly drawn) [Compound 72, (2S)-butyl 2-amino-4-(3,3-dimethylbutylsulfonimidoyl)butanoate] | 0.02 to 2 mM | < 1 mM | –
CCCCS(=N)(=O)CC[C@H](N)C(=O)OCc1oc(=O)oc1C (stereo partly drawn) [Compound 73, (2S)-(5-methyl-2-oxo-1,3-dioxol-4-yl)methyl 2-amino-4-(butylsulfonimidoyl) butanoate] | > 2 mM and 0.02 to 2 mM | ≥ 1 mM | –
COC(=O)[C@@H](N)CCS(=N)(=O)CCC1CCCC1 (some centres unmarked) [Compound 74] | 0.02 to 2 mM | < 1 mM | –
COCCCS(=N)(=O)CC[C@H](N)C(=O)OC (some centres unmarked) [Compound 75] | > 2 mM and 0.02 to 2 mM | ≥ 1 mM | 2.35 mM and 0.594 mM
COCCCCS(=N)(=O)CC[C@H](N)C(=O)OC (some centres unmarked) [Compound 76] | 0.02 to 2 mM | ≥ 1 mM | –
CCCCOC(=O)[C@@H](N)CCS(=N)(=O)CCC1CCCC1 (some centres unmarked) [Compound 77] | > 2 mM | < 1 mM | –
CCCCOC(=O)[C@@H](N)CCS(=N)(=O)CCC1CCCCC1 (some centres unmarked) [Compound 78] | 0.02 to 2 mM | < 1 mM | –
CCCCOC(=O)[C@@H](N)CCS(=N)(=O)CCCC(F)(F)F (some centres unmarked) [Compound 79] | > 2 mM | < 1 mM | –
N=S(=O)(CCCC(F)(F)F)CC[C@H](N)C(=O)OC1CCCCC1 (some centres unmarked) [Compound 80] | 0.02 to 2 mM | < 1 mM | –
N=S(=O)(CCCC(F)(F)F)CC[C@H](N)C(=O)OCC1CCCCC1 (some centres unmarked) [Compound 81] | 0.02 to 2 mM | < 1 mM | –
CCCC(C)OC(=O)[C@@H](N)CCS(=N)(=O)CCCC(F)(F)F (some centres unmarked) [Compound 82] | 0.02 to 2 mM | < 1 mM | –
COCCOC(=O)[C@@H](N)CCS(=N)(=O)CCCC(F)(F)F (some centres unmarked) [Compound 83] | 0.02 to 2 mM | < 1 mM | –
N=S(=O)(CCCC(F)(F)F)CC[C@H](N)C(=O)OC1CCOCC1 (some centres unmarked) [Compound 84] | 0.02 to 2 mM | < 1 mM | –
N=S(=O)(CCCC(F)(F)F)CC[C@H](N)C(=O)OCc1ccccc1 (some centres unmarked) [Compound 86] | 0.02 to 2 mM | < 1 mM | –
CCCCOC(=O)[C@@H](N)CCS(=N)(=O)CCC(C)(C)c1ccccc1 (some centres unmarked) [Compound 87] | 0.02 to 2 mM | < 1 mM | –
CC(C)OC(=O)[C@@H](N)CCS(=N)(=O)CCCC(F)(F)F (some centres unmarked) [Compound 88] | 0.02 to 2 mM | < 1 mM | –
CCCC(C)(C)OC(=O)[C@@H](N)CCS(=N)(=O)CCCC(F)(F)F (some centres unmarked) [Compound 89] | > 2 mM | < 1 mM | –
CCCCOC(=O)[C@@H](N)CC[S@@](=N)(=O)CCCC(F)(F)F [Compound 90] | 0.02 to 2 mM | < 1 mM | –

SMILES | IC50 (human recombinant GCL; read-out: GCL IC50) | EC50 (RKN cells) | IC50 (human recombinant GCL; read-out: GCL IC50 (mM), individual values in parentheses)
CCCCOC(=O)[C@@H](N)CCS(=N)(=O)CCc1ccccc1Cl (some centres unmarked) [Compound 91] | 0.02 to 2 mM | < 1 mM | –
CCCCOC(=O)[C@@H](N)CCS(=N)(=O)CCc1cccc(F)c1C(F)(F)F (some centres unmarked) [Compound 92] | 0.02 to 2 mM | < 1 mM | –
CC(C)(C)OC(=O)[C@@H](N)CC[S@@](=N)(=O)CCCC(F)(F)F [Compound 93] | 0.02 to 2 mM | < 1 mM | –
CCCCOC(=O)[C@@H](N)CCS(=N)(=O)CCc1ccccc1C(F)(F)F (some centres unmarked) [Compound 94] | 0.02 to 2 mM | < 1 mM | –
CCCCOC(=O)[C@@H](N)CCS(=N)(=O)CCC(C)C (some centres unmarked) [Compound 95] | 0.02 to 2 mM | < 1 mM | –
CC(C)(C)CCS(=N)(=O)CC[C@H](N)C(=O)OC1CCCCC1 (some centres unmarked) [Compound 97] | > 2 mM | < 1 mM | –
CCCC(C)(C)OC(=O)[C@@H](N)CCS(=N)(=O)CCC(C)(C)C (some centres unmarked) [Compound 99] | > 2 mM | < 1 mM | –
CCCCNC(=O)[C@@H](N)CCS(=N)(=O)CCC(C)(C)C (stereo partly drawn) [Compound 100, (2S)-2-amino-N-butyl-4-(3,3-dimethylbutylsulfonimidoyl)butanamide] | > 2 mM | < 1 mM | –
CC(C)(C)CCS(=N)(=O)CC[C@H](N)C(=O)Nc1cccnc1 (stereo partly drawn) [Compound 101, (2S)-2-amino-4-(3,3-dimethylbutylsulfonimidoyl)-N-(pyridin-3-yl)butanamide] | > 2 mM | < 1 mM | –
CCCCS(=N)(=O)CC[C@H](N)C(=O)NS(C)(=O)=O (stereo partly drawn) [Compound 104, (2S)-2-amino-4-(butylsulfonimidoyl)-N-(methylsulfonyl)butanamide] | 0.02 to 2 mM | ≥ 1 mM | –
CCCCS(=N)(=O)CC[C@H](N)C(N)=O (stereo partly drawn) [Compound 105, (2S)-2-amino-4-(butylsulfonimidoyl)butanamide] | > 2 mM | ≥ 1 mM | –
CCCCS(=N)(=O)CC[C@H](N)C(=O)NCC#N (some centres unmarked) [Compound 106] | > 2 mM | ≥ 1 mM | –
CCCCS(=N)(=O)CC[C@H](N)C(=O)NS(=O)(=O)C(F)(F)F (some centres unmarked) [Compound 108] | > 2 mM | ≥ 1 mM | –
CCCCS(=N)(=O)CC[C@H](N)C(=O)NS(=O)(=O)C1CC1 (some centres unmarked) [Compound 109] | 0.02 to 2 mM | ≥ 1 mM | –
CC(C)(C)CCS(=N)(=O)CC[C@H](N)C(=O)NS(C)(=O)=O (some centres unmarked) [Compound 111] | 0.02 to 2 mM | ≥ 1 mM | –
CCCCS(=N)(=O)CC[C@H](N)C(=O)NCC(N)=O (some centres unmarked) [Compound 112] | 0.02 to 2 mM | ≥ 1 mM | –
CC(C)(C)CCS(=N)(=O)CC[C@H](N)C(=O)NC1CC1 (some centres unmarked) [Compound 113] | 0.02 to 2 mM | < 1 mM | –
CC(C)(C)CCS(=N)(=O)CC[C@H](N)C(=O)NCC(F)(F)F (some centres unmarked) [Compound 114] | > 2 mM | < 1 mM | –
CN(C)C(=O)[C@@H](N)CCS(=N)(=O)CCC(C)(C)C (some centres unmarked) [Compound 115] | > 2 mM | ≥ 1 mM | –
CC(C)(C)CCS(=N)(=O)CC[C@H](N)C(=O)N1CCCC1 (some centres unmarked) [Compound 116] | > 2 mM | ≥ 1 mM | –
CC(C)(C)CCS(=N)(=O)CC[C@H](N)C(=O)NC(C)(C)C (some centres unmarked) [Compound 117] | > 2 mM | ≥ 1 mM | –
CC(C)(C)CCS(=N)(=O)CC[C@H](N)C(=O)Nc1ccccc1 (some centres unmarked) [Compound 118] | > 2 mM | < 1 mM | –
CC(C)(C)CCS(=N)(=O)CC[C@H](N)C(=O)NC1CCOCC1 (some centres unmarked) [Compound 120] | > 2 mM | < 1 mM | –

From patent US20260034094A1, “COMPOSITIONS AND METHODS FOR INDUCING FERROPTOSIS” (Kojin Therapeutics, Inc., priority 2022, published 2026)
